Among the data in patent US12252524B2, “GIP/GLP1 co-agonist compounds” (Eli Lilly and Company, priority 2018, dated 2025) are EC50 values, retold here.

Test [1] concerns the target human GLP-1 receptor (GLP-1R) (Homo sapiens, UniProt P43220). The test can be described thus: cAMP pharmacological functional assay in presence of casein, hGLP-1R. Format: cell-based. To be noted: HEK293 cells expressing hGLP-1R, 0.1% Casein, geometric mean; read-out: hGLP1R cAMP Rel EC50 nM (SEM, n).
Test [2] addresses T1, gastric inhibitory peptide receptor (GIPR) (Homo sapiens, UniProt P48546).
T1 sequence (P48546 22-466): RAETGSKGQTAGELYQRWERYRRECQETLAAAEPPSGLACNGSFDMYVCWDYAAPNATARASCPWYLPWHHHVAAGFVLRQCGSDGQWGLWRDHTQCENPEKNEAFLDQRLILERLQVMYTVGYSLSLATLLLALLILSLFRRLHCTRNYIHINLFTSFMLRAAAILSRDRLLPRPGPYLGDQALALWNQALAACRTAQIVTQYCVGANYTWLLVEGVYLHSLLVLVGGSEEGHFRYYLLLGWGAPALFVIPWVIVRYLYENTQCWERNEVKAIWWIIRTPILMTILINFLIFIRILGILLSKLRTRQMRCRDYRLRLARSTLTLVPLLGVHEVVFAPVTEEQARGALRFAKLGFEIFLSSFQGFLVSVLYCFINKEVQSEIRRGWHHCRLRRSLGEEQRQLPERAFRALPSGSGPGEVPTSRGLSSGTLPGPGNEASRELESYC
The test can be described thus: cAMP pharmacological functional assay in presence of casein, hGIPR. Format: cell-based. The settings on record: HEK293 cells expressing hGIPR, 0.1% Casein, geometric mean; read-out: hGIPR cAMP Rel EC50 nM (SEM, n).

Numbered stars: 1 amine (or outer) side, 2 acyl side, 3 side chain; on linkers, the order of the positions; unused ones are H or OH. Square brackets hold non-standard residues; d marks the D form. Side chains are listed from the residue outwards. Peptide text beside a SMILES is read from it. * marks the point of attachment. C20 diacid = O=C(O)CCCCCCCCCCCCCCCCCCC(=O)*; C18 diacid = O=C(O)CCCCCCCCCCCCCCCCC(=O)*; αMePhe(2-F) = C[C@](N)(Cc1ccccc1F)C(=O)O; γGlu = O=C(O)[C@H](CCC(=O)[*:2])N[*:1]; αMeL = CC(C)C[C@](C)(N)C(=O)O; AEEA = NCCOCCOCC(=O)O; Aib = CC(C)(N)C(=O)O

Chain of human GLP-1 receptor (GLP-1R) (P43220 24-463): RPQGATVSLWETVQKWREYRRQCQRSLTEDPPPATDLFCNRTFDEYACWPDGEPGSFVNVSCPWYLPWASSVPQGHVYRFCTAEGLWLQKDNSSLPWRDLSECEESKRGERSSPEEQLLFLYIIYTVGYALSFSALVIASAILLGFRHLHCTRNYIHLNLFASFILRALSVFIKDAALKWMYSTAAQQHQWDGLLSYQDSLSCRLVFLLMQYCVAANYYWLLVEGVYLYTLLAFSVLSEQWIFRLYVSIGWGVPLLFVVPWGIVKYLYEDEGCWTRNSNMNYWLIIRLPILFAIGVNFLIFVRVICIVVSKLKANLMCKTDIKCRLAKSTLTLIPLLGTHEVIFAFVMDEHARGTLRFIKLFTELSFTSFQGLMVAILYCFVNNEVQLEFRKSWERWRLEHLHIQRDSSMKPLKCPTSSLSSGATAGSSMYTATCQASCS

As for `CC[C@H](C)[C@H](NC(=O)[C@H](CCCCN)NC(=O)[C@H](CC(=O)O)NC(=O)[C@H](CC(C)C)NC(=O)[C@H](CC(C)C)NC(=O)[C@@H](NC(=O)[C@H](CO)NC(=O)[C@H](Cc1ccc(O)cc1)NC(=O)[C@H](CC(=O)O)NC(=O)[C@H](CO)NC(=O)[C@@H](NC(=O)[C@H](Cc1ccccc1)NC(=O)[C@@H](NC(=O)CNC(=O)[C@H](CCC(=O)O)NC(=O)C(C)(C)NC(=O)[C@@H](N)Cc1ccc(O)cc1)[C@@H](C)O)[C@@H](C)O)[C@@H](C)CC)C(=O)N[C@@H](C)C(=O)N[C@@H](CCC(N)=O)C(=O)NC(C)(C)C(=O)N[C@@H](C)C(=O)N[C@@H](Cc1ccccc1)C(=O)N[C@H](C(=O)N[C@@H](CCC(=O)O)C(=O)N[C@@H](Cc1ccc(O)cc1)C(=O)N[C@@H](CC(C)C)C(=O)N[C@H](C(=O)N[C@@H](CCC(=O)O)C(=O)NCC(=O)NCC(=O)N1CCC[C@H]1C(=O)N[C@@H](CO)C(=O)N[C@@H](CO)C(=O)NCC(=O)N[C@@H](C)C(=O)N1CCC[C@H]1C(=O)N1CCC[C@H]1C(=O)N[C@@H](CCCCNC(=O)COCCOCCNC(=O)COCCOCCNC(=O)CC[C@H](NC(=O)CCCCCCCCCCCCCCCCCCC(=O)O)C(=O)O)C(=O)N[C@@H](CO)C(N)=O)[C@@H](C)CC)[C@@H](C)CC` [Example 47] (H-Y[Aib]EGTFTSDYSILLDKIAQ[Aib]AFIEYLIEGGPSSGAPPK([AEEA-AEEA-γGlu-C20 diacid])S-NH2), the EC50 – broadly, the concentration needed to bring the measured effect to its halfway point – in test [1] worked out at 0.702 nM; in test [2], 0.287 nM.
For the compound `CC[C@H](C)[C@H](NC(=O)[C@H](CCCCN)NC(=O)[C@H](CC(=O)O)NC(=O)[C@H](CC(C)C)NC(=O)[C@H](CC(C)C)NC(=O)[C@@H](NC(=O)[C@H](CO)NC(=O)[C@H](CCCCNC(=O)COCCOCCNC(=O)COCCOCCNC(=O)CC[C@H](NC(=O)CCCCCCCCCCCCCCCCCCC(=O)O)C(=O)O)NC(=O)[C@H](CC(=O)O)NC(=O)[C@H](CO)NC(=O)[C@@H](NC(=O)[C@H](Cc1ccccc1)NC(=O)[C@@H](NC(=O)CNC(=O)[C@H](CCC(=O)O)NC(=O)C(C)(C)NC(=O)[C@@H](N)Cc1ccc(O)cc1)[C@@H](C)O)[C@@H](C)O)[C@@H](C)CC)C(=O)N[C@@H](C)C(=O)N[C@@H](CCC(N)=O)C(=O)NC(C)(C)C(=O)N[C@@H](C)C(=O)N[C@@H](Cc1ccccc1)C(=O)N[C@H](C(=O)N[C@@H](CCC(=O)O)C(=O)N[C@@H](Cc1ccc(O)cc1)C(=O)N[C@@H](CC(C)C)C(=O)N[C@H](C(=O)N[C@@H](CCC(=O)O)C(=O)NCC(=O)NCC(N)=O)[C@@H](C)CC)[C@@H](C)CC` [Example 70] (H-Y[Aib]EGTFTSDK([AEEA-AEEA-γGlu-C20 diacid])SILLDKIAQ[Aib]AFIEYLIEGG-NH2; N-terminus assumed), the values for the EC50 in test [1] and in test [2] were 0.283 nM and 0.48 nM, respectively.
The matching figures for `CC[C@H](C)[C@H](NC(=O)[C@H](CCCCN)NC(=O)[C@H](CC(=O)O)NC(=O)[C@H](CCCCNC(=O)COCCOCCNC(=O)COCCOCCNC(=O)CC[C@H](NC(=O)CCCCCCCCCCCCCCCCCCC(=O)O)C(=O)O)NC(=O)[C@H](CC(C)C)NC(=O)[C@@H](NC(=O)[C@H](CO)NC(=O)[C@H](Cc1ccc(O)cc1)NC(=O)[C@H](CC(=O)O)NC(=O)[C@H](CO)NC(=O)[C@@H](NC(=O)[C@H](Cc1ccccc1)NC(=O)[C@@H](NC(=O)CNC(=O)[C@H](CCC(=O)O)NC(=O)C(C)(C)NC(=O)[C@@H](N)Cc1ccc(O)cc1)[C@@H](C)O)[C@@H](C)O)[C@@H](C)CC)C(=O)N[C@@H](C)C(=O)N[C@@H](CCC(N)=O)C(=O)NC(C)(C)C(=O)N[C@@H](C)C(=O)N[C@@H](Cc1ccccc1)C(=O)N[C@H](C(=O)N[C@@H](CCC(=O)O)C(=O)N[C@@H](Cc1ccc(O)cc1)C(=O)N[C@@H](CC(C)C)C(=O)N[C@H](C(=O)N[C@@H](CCC(=O)O)C(=O)NCC(=O)NCC(N)=O)[C@@H](C)CC)[C@@H](C)CC` [Example 71] (H-Y[Aib]EGTFTSDYSILK([AEEA-AEEA-γGlu-C20 diacid])DKIAQ[Aib]AFIEYLIEGG-NH2): 1.02 nM and 0.166 nM.
With `CC[C@H](C)[C@H](NC(=O)[C@H](CCCCN)NC(=O)[C@H](CC(=O)O)NC(=O)[C@H](CC(C)C)NC(=O)[C@H](CC(C)C)NC(=O)[C@@H](NC(=O)[C@H](CO)NC(=O)[C@H](Cc1ccc(O)cc1)NC(=O)[C@H](CC(=O)O)NC(=O)[C@H](CO)NC(=O)[C@@H](NC(=O)[C@H](Cc1ccccc1)NC(=O)[C@@H](NC(=O)CNC(=O)[C@H](CCC(=O)O)NC(=O)C(C)(C)NC(=O)[C@@H](N)Cc1ccc(O)cc1)[C@@H](C)O)[C@@H](C)O)[C@@H](C)CC)C(=O)N[C@@H](C)C(=O)N[C@@H](CCC(N)=O)C(=O)NC(C)(C)C(=O)N[C@@H](CCCCNC(=O)COCCOCCNC(=O)COCCOCCNC(=O)CC[C@H](NC(=O)CCCCCCCCCCCCCCCCCCC(=O)O)C(=O)O)C(=O)N[C@@H](Cc1ccccc1)C(=O)N[C@H](C(=O)N[C@@H](CCC(=O)O)C(=O)N[C@@H](Cc1ccc(O)cc1)C(=O)N[C@@H](CC(C)C)C(=O)N[C@H](C(=O)N[C@@H](CCC(=O)O)C(=O)NCC(=O)NCC(N)=O)[C@@H](C)CC)[C@@H](C)CC` [Example 72] (H-Y[Aib]EGTFTSDYSILLDKIAQ[Aib]K([AEEA-AEEA-γGlu-C20 diacid])FIEYLIEGG-NH2), the figures for the EC50 in test [1] and in test [2] were 0.906 nM and 0.252 nM, respectively.
Consider `CC[C@H](C)[C@H](NC(=O)[C@H](CCCCN)NC(=O)[C@H](CC(=O)O)NC(=O)[C@H](CC(C)C)NC(=O)[C@H](CC(C)C)NC(=O)[C@@H](NC(=O)[C@H](CO)NC(=O)[C@H](Cc1ccc(O)cc1)NC(=O)[C@H](CC(=O)O)NC(=O)[C@H](CO)NC(=O)[C@@H](NC(=O)[C@H](Cc1ccccc1)NC(=O)[C@@H](NC(=O)CNC(=O)[C@H](CCC(=O)O)NC(=O)C(C)(C)NC(=O)[C@@H](N)Cc1ccc(O)cc1)[C@@H](C)O)[C@@H](C)O)[C@@H](C)CC)C(=O)N[C@@H](C)C(=O)N[C@@H](CCC(N)=O)C(=O)NC(C)(C)C(=O)N[C@@H](C)C(=O)N[C@@H](Cc1ccccc1)C(=O)N[C@H](C(=O)N[C@@H](CCC(=O)O)C(=O)N[C@@H](Cc1ccc(O)cc1)C(=O)N[C@@H](CC(C)C)C(=O)N[C@H](C(=O)N[C@@H](CCCCNC(=O)COCCOCCNC(=O)COCCOCCNC(=O)CC[C@H](NC(=O)CCCCCCCCCCCCCCCCCCC(=O)O)C(=O)O)C(=O)NCC(=O)NCC(N)=O)[C@@H](C)CC)[C@@H](C)CC` [Example 73] (H-Y[Aib]EGTFTSDYSILLDKIAQ[Aib]AFIEYLIK([AEEA-AEEA-γGlu-C20 diacid])GG-NH2), for which the figures for the EC50 in test [1] and in test [2] were 2.55 nM and 0.979 nM, respectively.
As to `CC[C@H](C)[C@H](NC(=O)[C@H](CC(C)C)NC(=O)[C@H](Cc1ccc(O)cc1)NC(=O)[C@@H](CCC(=O)O)NC(=O)[C@@H](NC(=O)[C@H](Cc1ccccc1)NC(=O)[C@H](Cc1c[nH]cn1)NC(=O)C(C)(C)NC(=O)[C@H](CCC(N)=O)NC(=O)[C@H](C)NC(=O)[C@H](CCCCNC(=O)COCCOCCNC(=O)COCCOCCNC(=O)CC[C@H](NC(=O)CCCCCCCCCCCCCCCCC(=O)O)C(=O)O)NC(=O)[C@H](CCC(=O)O)NC(=O)[C@H](CC(=O)O)NC(=O)[C@H](CC(C)C)NC(=O)[C@](C)(CC(C)C)NC(=O)[C@@H](NC(=O)[C@H](CO)NC(=O)[C@H](Cc1c[nH]cn1)NC(=O)[C@H](CC(=O)O)NC(=O)[C@H](CO)NC(=O)[C@@H](NC(=O)[C@](C)(Cc1ccccc1F)NC(=O)[C@@H](NC(=O)CNC(=O)[C@H](CCC(=O)O)NC(=O)C(C)(C)NC(=O)[C@@H](N)Cc1ccc(O)cc1)[C@@H](C)O)[C@@H](C)O)[C@@H](C)CC)[C@@H](C)CC)C(=O)N[C@@H](CCC(=O)O)C(=O)NCC(=O)NCC(N)=O` [Example 180] (H-Y[Aib]EGT[αMePhe(2-F)]TSDHSI[αMeL]LDEK([AEEA-AEEA-γGlu-C18 diacid])AQ[Aib]HFI[dE]YLIEGG-NH2), the EC50 in test [1] was determined as 2.16 nM.
As for `CC[C@H](C)[C@H](NC(=O)[C@H](CC(C)C)NC(=O)[C@H](Cc1ccc(O)cc1)NC(=O)[C@@H](CCC(=O)O)NC(=O)[C@@H](NC(=O)[C@H](Cc1ccccc1)NC(=O)[C@H](CCC(=O)O)NC(=O)C(C)(C)NC(=O)[C@H](CCC(N)=O)NC(=O)[C@H](C)NC(=O)[C@H](CCCCNC(=O)COCCOCCNC(=O)COCCOCCNC(=O)CC[C@H](NC(=O)CCCCCCCCCCCCCCCCCCC(=O)O)C(=O)O)NC(=O)[C@H](CCC(=O)O)NC(=O)[C@H](CC(=O)O)NC(=O)[C@H](CC(C)C)NC(=O)[C@](C)(CC(C)C)NC(=O)[C@@H](NC(=O)[C@H](CO)NC(=O)[C@@H](Cc1ccc(O)cc1)NC(=O)[C@H](CC(=O)O)NC(=O)[C@H](CO)NC(=O)[C@@H](NC(=O)[C@](C)(Cc1ccccc1F)NC(=O)[C@@H](NC(=O)CNC(=O)[C@H](CCC(=O)O)NC(=O)C(C)(C)NC(=O)[C@@H](N)Cc1ccc(O)cc1)[C@@H](C)O)[C@@H](C)O)[C@@H](C)CC)[C@@H](C)CC)C(=O)N[C@@H](CCC(=O)O)C(=O)NCC(=O)NCC(=O)N1CCC[C@H]1C(=O)N[C@@H](CO)C(=O)N[C@@H](CO)C(=O)NCC(=O)N[C@@H](C)C(=O)N1CCC[C@H]1C(=O)N1CCC[C@H]1C(=O)N1CCC[C@H]1C(=O)N[C@@H](CO)C(N)=O` [Example 184] (H-Y[Aib]EGT[αMePhe(2-F)]TSD[dY]SI[αMeL]LDEK([AEEA-AEEA-γGlu-C20 diacid])AQ[Aib]EFI[dE]YLIEGGPSSGAPPPS-NH2), the EC50 in test [2] stood at 0.0477 nM.
